In paper PMC5484537 (Bioorganic & medicinal chemistry, 2016):

Columns and labels:
[1] = target: T1, TAK1 (Homo sapiens, UniProt O43318); assay: KINOMEscan binding to TAK1; settings: for binding to TAK1 in KINOMEscan: concentration of 1 μM
T1 sequence (O43318 1-606): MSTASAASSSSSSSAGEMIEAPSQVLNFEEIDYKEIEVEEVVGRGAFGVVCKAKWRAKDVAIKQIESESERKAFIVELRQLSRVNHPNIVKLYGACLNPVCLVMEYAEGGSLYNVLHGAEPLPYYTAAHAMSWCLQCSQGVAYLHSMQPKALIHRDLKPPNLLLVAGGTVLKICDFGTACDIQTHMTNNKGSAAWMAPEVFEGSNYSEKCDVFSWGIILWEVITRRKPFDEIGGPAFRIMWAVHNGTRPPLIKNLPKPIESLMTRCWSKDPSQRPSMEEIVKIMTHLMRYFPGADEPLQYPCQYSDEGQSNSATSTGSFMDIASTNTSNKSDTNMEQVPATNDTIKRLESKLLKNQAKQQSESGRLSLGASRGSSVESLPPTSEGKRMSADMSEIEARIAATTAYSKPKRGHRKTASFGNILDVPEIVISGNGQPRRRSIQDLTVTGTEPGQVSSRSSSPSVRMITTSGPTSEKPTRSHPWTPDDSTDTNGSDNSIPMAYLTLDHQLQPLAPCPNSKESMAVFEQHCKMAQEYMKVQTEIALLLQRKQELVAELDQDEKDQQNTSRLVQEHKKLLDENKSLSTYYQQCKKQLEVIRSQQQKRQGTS

[2] = target: T2, TAK1 (Homo sapiens, UniProt O43318); assay: Mass spectrometry analysis of purified TAK1 incubated with compound; assay type: binding; settings: Fig S3
T2 sequence (O43318 with tags, fused parts or gaps): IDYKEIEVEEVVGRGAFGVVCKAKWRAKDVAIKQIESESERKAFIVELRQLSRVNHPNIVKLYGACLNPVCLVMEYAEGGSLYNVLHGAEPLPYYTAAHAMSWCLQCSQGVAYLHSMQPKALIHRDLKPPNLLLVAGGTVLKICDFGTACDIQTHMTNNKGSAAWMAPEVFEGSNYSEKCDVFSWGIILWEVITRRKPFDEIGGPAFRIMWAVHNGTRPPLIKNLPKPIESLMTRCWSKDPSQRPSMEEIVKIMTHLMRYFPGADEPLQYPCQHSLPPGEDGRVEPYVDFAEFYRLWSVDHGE

[3] = target: T3, TAK1 (Homo sapiens, UniProt O43318); assay: Time-dependent experiments, Kinact/Ki determination; assay type: binding
T3 sequence (O43318 1-303 limits assumed): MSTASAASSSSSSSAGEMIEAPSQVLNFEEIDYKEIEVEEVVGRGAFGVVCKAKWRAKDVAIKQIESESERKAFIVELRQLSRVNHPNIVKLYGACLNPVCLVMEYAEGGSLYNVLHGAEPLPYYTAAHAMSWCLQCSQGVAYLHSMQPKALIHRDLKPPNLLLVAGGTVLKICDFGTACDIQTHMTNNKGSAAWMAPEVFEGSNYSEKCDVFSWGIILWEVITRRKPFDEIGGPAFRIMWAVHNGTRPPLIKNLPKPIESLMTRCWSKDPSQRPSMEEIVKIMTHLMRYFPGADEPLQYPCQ

[4] = target: ERK2 (Homo sapiens, UniProt P28482); assay: Z'-Lyte activity assay, ERK2; assay type: biochemical; settings: compound incubation time of 60 min
ERK2, sequence (P28482 2-360): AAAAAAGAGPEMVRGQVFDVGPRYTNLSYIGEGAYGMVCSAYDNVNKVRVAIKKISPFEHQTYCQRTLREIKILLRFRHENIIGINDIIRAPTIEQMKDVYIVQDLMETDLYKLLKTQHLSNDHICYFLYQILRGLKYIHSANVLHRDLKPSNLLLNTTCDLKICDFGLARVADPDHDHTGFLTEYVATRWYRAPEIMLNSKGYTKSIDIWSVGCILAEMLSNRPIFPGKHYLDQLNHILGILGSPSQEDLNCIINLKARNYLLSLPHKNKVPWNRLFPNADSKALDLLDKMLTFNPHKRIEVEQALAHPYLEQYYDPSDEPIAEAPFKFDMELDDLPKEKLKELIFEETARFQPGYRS

[5] = test system: panel of 468 kinases and mutants; assay: KINOMEscan in vitro ATP-site competition binding assay, kinome selectivity; parameters: species or system human; settings: KINOMEscan at 1 μM; for selectivity score S(1): 468 kinases and mutants, kinases with scores less than 1

COc1cc(O)c2c(c1)/C=C/C[C@H](O)[C@H](O)C(=O)/C=C\C[C@H](C)OC2=O [5Z7, 5Z-7-oxozeaenol, reference compound]
inhibition score against TAK1 in KINOMEscan ([1]; 10 μM): moderate inhibition score
binding to TAK1 in KINOMEscan [1]: did not display strong binding

C=CC(=O)Nc1ccccc1Oc1nc(Nc2ccc(N3CCN(C)CC3)cc2)ncc1Cl [compound 2, N-(2-((5-chloro-2-((4-(4-methylpiperazin-1-yl)phenyl)amino)pyrimidin-4-yl)oxy)phenyl)acrylamide]
labeling of TAK1 residue [2]: exclusive labeling of Cys174

C=CC(=O)Nc1ccccc1Nc1nc(Nc2ccc(N3CCN(C)CC3)cc2)ncc1Cl [compound 5, N-(2-((5-chloro-2-((4-(4-methylpiperazin-1-yl)phenyl)amino)pyrimidin-4-yl)amino)phenyl)acrylamide]
kinact/KI [3]: 6870 M⁻¹ s⁻¹
Enzymatic IC50s ERK2 [4]: weak activity
binding to kinases with a cysteine at the DFG-1 position [5]: binds to TAK1 and ten other kinases with a cysteine at the DFG-1 position
selectivity score S(1) [5]: 0.10

C=CC(=O)Oc1ccccc1Nc1nc(Nc2ccc(N3CCN(C)CC3)cc2)ncc1Cl [compound 7, 2-((5-chloro-2-((4-(4-methylpiperazin-1-yl)phenyl)amino)pyrimidin-4-yl)amino)phenyl acrylate]
selectivity score S(1) [5]: 0.19

CCC(=O)Nc1ccccc1Nc1nc(Nc2ccc(N3CCN(C)CC3)cc2)ncc1Cl [compound 9]
binding to kinases with a cysteine at the DFG-1 position [5]: hits no kinases with a cysteine at the DFG-1 position
selectivity score S(1) [5]: 0.10

C=CC(=O)Nc1ccccc1Oc1nc(Nc2cnn(C(F)F)c2)ncc1Cl [compound 23]
binding to TAK1 in KINOMEscan [1]: TAK1 was not ranked among the strongest hits
selectivity score S(5) [5]: 0.1

C=CC(=O)Nc1ccccc1Oc1nc(Nc2cnn(CCOC)c2)ncc1Cl [compound 25]
binding to TAK1 in KINOMEscan [1]: TAK1 was not ranked among the strongest hits
selectivity score S(5) [5]: 0.03
